According to patent publication US12479830B2, “Homopiperazinyl and homopiperidinyl quinazolin-4(3H)-one derivatives having multimodal activity against pain” (ESTEVE PHARMACEUTICALS, S.A., priority 2019, dated 2025):

What was measured:
[1] = molecular target: Human α2δ-1 subunit of Cav2.2 calcium channel (Homo sapiens, UniProt P54289); assay: Human α2δ-1 subunit of Cav2.2 calcium channel assay ([3H]-gabapentin binding); conditions: binding to the α2δ-1 subunit of voltage-gated calcium channels, expressed as Ki class; + also covers inhibition between 1% and 50%
Chain of Human α2δ-1 subunit of Cav2.2 calcium channel (P54289 25-1103): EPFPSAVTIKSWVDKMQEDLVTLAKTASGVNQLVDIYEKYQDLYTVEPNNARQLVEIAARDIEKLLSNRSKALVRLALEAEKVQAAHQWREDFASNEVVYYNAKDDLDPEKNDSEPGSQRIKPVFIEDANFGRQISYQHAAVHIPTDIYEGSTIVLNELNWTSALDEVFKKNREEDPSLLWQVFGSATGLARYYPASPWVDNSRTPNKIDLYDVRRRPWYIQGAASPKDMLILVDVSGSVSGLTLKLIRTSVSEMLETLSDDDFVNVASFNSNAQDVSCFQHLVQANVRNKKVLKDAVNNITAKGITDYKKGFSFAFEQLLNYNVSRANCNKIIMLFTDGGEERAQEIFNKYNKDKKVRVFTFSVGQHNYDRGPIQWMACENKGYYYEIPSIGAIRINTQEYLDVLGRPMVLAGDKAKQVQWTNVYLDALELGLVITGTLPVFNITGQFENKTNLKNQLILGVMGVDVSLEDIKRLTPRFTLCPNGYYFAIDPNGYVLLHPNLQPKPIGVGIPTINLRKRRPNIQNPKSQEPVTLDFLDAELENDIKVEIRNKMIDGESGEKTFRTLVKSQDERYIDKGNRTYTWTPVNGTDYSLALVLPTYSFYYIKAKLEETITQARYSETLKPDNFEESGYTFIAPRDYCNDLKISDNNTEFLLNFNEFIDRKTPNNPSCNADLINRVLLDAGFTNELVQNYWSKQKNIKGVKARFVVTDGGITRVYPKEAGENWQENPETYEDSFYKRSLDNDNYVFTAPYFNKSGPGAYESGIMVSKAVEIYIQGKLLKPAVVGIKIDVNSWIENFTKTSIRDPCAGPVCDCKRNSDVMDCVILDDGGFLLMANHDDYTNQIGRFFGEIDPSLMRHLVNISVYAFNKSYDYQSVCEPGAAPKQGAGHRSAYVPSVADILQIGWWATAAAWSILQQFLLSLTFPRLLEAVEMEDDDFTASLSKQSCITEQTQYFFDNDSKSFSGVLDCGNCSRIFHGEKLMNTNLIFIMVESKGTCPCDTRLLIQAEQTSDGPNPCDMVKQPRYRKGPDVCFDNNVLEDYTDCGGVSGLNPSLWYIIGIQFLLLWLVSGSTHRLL
How it was run: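 Affinity (Ki, five concentrations) or % inhibition at 1 or 10 μM, from displacement of 15 nM [3H]-gabapentin on human α2δ-1 membranes. Incubation 60 min, 27° C., Hepes-KOH 10 mM pH 7.4; 10 μM pregabalin defined non-specific binding; bound radioactivity counted after GF/C filtration.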

Human σ1 receptor = molecular target: T1, Human σ1 receptor (Homo sapiens, UniProt Q99720); assay: Human σ1 receptor radioligand assay ([3H](+)-pentazocine binding); conditions: binding to the σ1 receptor, expressed as Ki class; + also covers inhibition between 1% and 50%
T1 construct: expressed in transfected cells; host or cells: HEK-293
T1 sequence (Q99720 whole entry): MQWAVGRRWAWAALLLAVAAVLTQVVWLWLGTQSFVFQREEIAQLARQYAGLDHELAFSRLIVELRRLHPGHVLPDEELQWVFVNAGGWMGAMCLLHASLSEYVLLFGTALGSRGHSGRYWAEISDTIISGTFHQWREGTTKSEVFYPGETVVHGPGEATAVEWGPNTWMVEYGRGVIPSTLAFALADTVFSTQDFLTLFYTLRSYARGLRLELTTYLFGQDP
How it was run: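 Ki was derived from five test concentrations, or % inhibition was measured at a single 1 or 10 μM dose, against 5 nM [3H](+)-pentazocine. Incubation was 120 min at 37° C in 50 mM Tris-HCl pH 8 with 7 μg HEK-293 membranes, and 10 μM haloperidol set non-specific binding. Bound radioactivity was counted after filtration.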

| Compound | Ki [1] [µM] | Ki (Human σ1 receptor) [µM] |
| --- | --- | --- |
| CCC[C@H](c1nc2cc(F)c(Cl)cc2c(=O)n1CC)N1CCNC[C@@H](C)C1 [Example 119, 6-chloro-3-ethyl-7-fluoro-2-((R)-1-((R)-6-methyl-1,4-diazepan-1-yl)butyl)quinazolin-4(3H)-one] | < 0.5 | 0.5 to 1 |
| CCC[C@H](c1nc2ccc(Br)cc2c(=O)n1CC)N1CCN(C)C[C@@H](COC)C1 [Example 106, 6-bromo-3-ethyl-2-((R)-1-((R)-6-(methoxymethyl)-4-methyl-1,4-diazepan-1-yl)butyl)quinazolin-4(3H)-one] | < 0.5 | > 1 |
| CCCC(c1nc2ccc(F)cc2c(=O)n1CC)C1CCCN(C)CC1 (centres unmarked) [Example 267, 3-ethyl-6-fluoro-2-(1-(1-methylazepan-4-yl)butyl)quinazolin-4(3H)-one] | < 0.5 | 0.5 to 1 |
| CCCC(c1nc2ccc(Br)cc2c(=O)n1CC(C)C)N1CCCN(CC)CC1 (centres unmarked) [Example 58, 6-bromo-2-(1-(4-ethyl-1,4-diazepan-1-yl)butyl)-3-isobutylquinazolin-4(3H)-one] | < 0.5 | < 0.5 |
| CCC[C@H](c1nc2ccc(Br)cc2c(=O)n1CC)N1CCN(C)C[C@@H](CO)C1 [Example 125, 6-bromo-3-ethyl-2-((R)-1-((R)-6-(hydroxymethyl)-4-methyl-1,4-diazepan-1-yl)butyl)quinazolin-4(3H)-one] | 0.5 to 5 | 0.5 to 1 |
| CCC[C@H](c1nc2cc(F)c(F)cc2c(=O)n1CC)N1CCCN[C@@H](C)C1 [Example 260, 3-ethyl-6,7-difluoro-2-((R)-1-((S)-3-methyl-1,4-diazepan-1-yl)butyl)quinazolin-4(3H)-one] | < 0.5 | > 1 |
| CCC[C@@H](c1nc2ccc(Br)cc2c(=O)n1CC)N1CCN(C)C[C@H](COC)C1 [Example 107, 6-bromo-3-ethyl-2-((S)-1-((S)-6-(methoxymethyl)-4-methyl-1,4-diazepan-1-yl)butyl)quinazolin-4(31-)-one] | 0.5 to 5 | 0.5 to 1 |
| CCC[C@@H](c1nc2ccc(Br)cc2c(=O)n1CC)N1CCCN(CC)CC1 [Example 154, (S)-6-bromo-3-ethyl-2-(1-(4-ethyl-1,4-diazepan-1-yl)butyl)quinazolin-4(3H)-one] | > 5 | < 0.5 |
| CCCC(c1nc2ccc(Br)cc2c(=O)[nH]1)N1CCCN(C)CC1 (centres unmarked) [Example 122, 6-bromo-2-(1-(4-methyl-1,4-diazepan-1-yl)butyl)quinazolin-4(3H)-one] | > 5 | 0.5 to 1 |
| CCC[C@@H](c1nc2ccc(Br)cc2c(=O)n1CC)N1CCN(C)C[C@@H](COC)C1 [Example 108, 6-bromo-3-ethyl-2-((S)-1-((R)-6-(methoxymethyl)-4-methyl-1,4-diazepan-1-yl)butyl)quinazolin-4(3/1)-one] | > 5 | 0.5 to 1 |
| CCCC(c1nc2ccc(F)cc2c(=O)n1CC)N1CCCN(C)CC1 (centres unmarked) [Example 21, 3-ethyl-6-fluoro-2-(1-(4-methyl-1,4-diazepan-1-yl)butyl)quinazolin-4(3H)-one] | < 0.5 | < 0.5 |
| CCCC(c1nc2cc(F)c(Br)cc2c(=O)n1CCC)N1CCCN(CC)CC1 (centres unmarked) [Example 61, 6-bromo-2-(1-(4-ethyl-1,4-diazepan-1-yl)butyl)-7-fluoro-3-propylquinazolin-4(3H)-one] | < 0.5 | < 0.5 |
| CCC[C@@H](c1nc2ccncc2c(=O)n1CC)N1CCNC[C@@H](C)C1 [Example 167, 3-ethyl-2-((S)-1-((R)-6-methyl-1,4-diazepan-1-yl)butyl)pyrido[4,3-d]pyrimidin-4(3H)-one] | 0.5 to 5 | > 1 |
| CCC[C@H](c1nc2ccc(C(F)(F)F)cc2c(=O)n1CC)N1CCN[C@@H](C)CC1 [Example 259, 3-ethyl-2-((R)-1-((S)-5-methyl-1,4-diazepan-1-yl)butyl)-6-(trifluoromethyl)quinazolin-4(3H)-one] | < 0.5 | < 0.5 |
| CCCC(c1nc2cc(Cl)c(Cl)cc2c(=O)n1CC)N1CCCNCC1 (centres unmarked) [Example 91, 2-(1-(1,4-diazepan-1-yl)butyl)-6,7-dichloro-3-ethylquinazolin-4(3H)-one] | < 0.5 | 0.5 to 1 |
| CCC[C@@H](c1nc2ccc(Br)cc2c(=O)n1CC)N1CCN[C@@H](C)CC1 [Example 95, 6-bromo-3-ethyl-2-((S)-1-((S)-5-methyl-1,4-diazepan-1-yl)butyl)quinazolin-4(3H)-one] | > 5 | > 1 |
| CCC[C@@H](c1nc2cc(F)c(Br)cc2c(=O)n1CC)N1CCN(C)C[C@@H](C)C1 [Example 129, 6-bromo-2-((S)-1-((R)-4,6-dimethyl-1,4-diazepan-1-yl)butyl)-3-ethyl-7-fluoroquinazolin-4(3H)-one] | 0.5 to 5 | > 1 |

| Compound | Ki [1] [µM] | Ki (Human σ1 receptor) [µM] |
| --- | --- | --- |
| CCCC(c1nc2c(F)cc(Br)cc2c(=O)n1CC)N1CCCNCC1 (centres unmarked) [Example 55, 2-(1-(1,4-diazepan-1-yl)butyl)-6-bromo-3-ethyl-8-fluoroquinazolin-4(3H)-one] | 0.5 to 5 | > 1 |
| CCC[C@H](c1nc2c(F)cc(Br)cc2c(=O)n1CC)N1CCCN(C)CC1 [Example 161, (R)-6-Bromo-3-ethyl-8-fluoro-2-(1-(4-methyl-1,4-diazepan-1-yl)butyl)quinazolin-4(3H)-one] | < 0.5 | 0.5 to 1 |
| CCC[C@H](c1nc2cc(F)c(F)cc2c(=O)n1CC)N1CCN[C@H](C)CC1 [Example 241, 3-ethyl-6,7-difluoro-2-((R)-1-((R)-5-methyl-1,4-diazepan-1-yl)butyl)quinazolin-4(3H)-one] | < 0.5 | 0.5 to 1 |
| CCCC(c1nc2cnc(OC)cc2c(=O)n1CC)N1CCCN(C)CC1 (centres unmarked) [Example 191, 3-ethyl-6-methoxy-2-(1-(4-methyl-1,4-diazepan-1-yl)butyl)pyrido[3,4-d]pyrimidin-4(3H)-one] | < 0.5 | > 1 |
| CCC[C@H](c1nc2ccc(Cl)cc2c(=O)n1C)N1CC[C@@H](C)N(C)CC1 [Example 257, 6-chloro-2-((R)-1-((R)-4,5-dimethyl-1,4-diazepan-1-yl)butyl)-3-mehtylquinazolin-4(3H)-one] | > 5 | < 0.5 |
| CCCC(c1nc2c(Cl)cc(F)cc2c(=O)n1CC)N1CCCNCC1 (centres unmarked) [Example 71, 2-(1-(1,4-diazepan-1-yl)butyl)-8-chloro-3-ethyl-6-fluoroquinazolin-4(3H)-one] | > 5 | > 1 |
| CCCC(c1nc2ncc(F)cc2c(=O)n1CC1CC1)N1CCCN(C)CC1 (centres unmarked) [Example 184, 3-(cyclopropylmethyl)-6-fluoro-2-(1-(4-methyl-1,4-diazepan-1-yl)butyl)pyrido[2,3-d]pyrimidin-4(3H)-one] | < 0.5 | > 1 |
| CCC[C@H](c1nc2ccc(Cl)cc2c(=O)n1CC)N1CCN(C)C[C@H](C)C1 [Example 75, 6-chloro-2-((R)-1-((S)-4,6-dimethyl-1,4-diazepan-1-yl)butyl)-3-ethylquinazolin-4(3H)-one] | < 0.5 | 0.5 to 1 |
| CCCC(c1nc2ccc(Br)c(F)c2c(=O)n1CC)N1CCCN(CC)CC1 (centres unmarked) [Example 52, 6-bromo-3-ethyl-2-(1-(4-ethyl-1,4-diazepan-1-yl)butyl)-5-fluoroquinazolin-4(3H)-one] | 0.5 to 5 | < 0.5 |
| CCCC(c1nc2ccc(Br)cc2c(=O)n1CC)N1CCCN(CC)CC1 (centres unmarked) [Example 7, 6-bromo-3-ethyl-2-(1-(4-ethyl-1,4-diazepan-1-yl)butyl)quinazolin-4(3H)-one] | < 0.5 | < 0.5 |
| CCCC(c1nc2ccc(NC3CCN(C)CC3)cc2c(=O)n1CC)N1CCCN(C)CC1 (centres unmarked) [Example 206, 3-Ethyl-2-(1-(4-methyl-1,4-diazepan-1-yl)butyl)-6-((1-methylpiperidin-4-yl)amino)quinazolin-4(3H)-one] | < 0.5 | > 1 |
| CCC[C@@H](c1nc2ccncc2c(=O)n1CC)N1CCN(C)C[C@@H](C)C1 [Example 171, 2-((S)-1-((R)-4,6-dimethyl-1,4-diazepan-1-yl)butyl)-3-ethylpyrido[4,3-d]pyrimidin-4(3H)-one] | > 5 | > 1 |
| CCCC(c1nc2cc(F)c(Br)cc2c(=O)n1C)N1CCCN(C)CC1 (centres unmarked) [Example 77, 6-bromo-7-fluoro-3-methyl-2-(1-(4-methyl-1,4-diazepan-1-yl)butyl)quinazolin-4(3H)-one] | 0.5 to 5 | < 0.5 |
| CCC[C@H](c1nc2ccc(Br)cc2c(=O)n1CC)N1CCN(C)C[C@@H](C)C1 [Example 35, 6-bromo-2-((R)-1-((R)-4,6-dimethyl-1,4-diazepan-1-yl)butyl)-3-ethylquinazolin-4(3H)-one] | < 0.5 | > 1 |
| CCC[C@H](c1nc2cc(F)c(OC)cc2c(=O)n1CC)N1CCN(C)C[C@H](C)C1 [Example 238, 2-((R)-1-((S)-4,6-dimethyl-1,4-diazepan-1-yl)butyl)-3-ethyl-7-fluoro-6-methoxyquinazolin-4(3H)-one] | < 0.5 | 0.5 to 1 |
| CCC[C@H](c1nc2ccc(C(F)(F)F)cc2c(=O)n1CC)N1CCN[C@H](C)CC1 [Example 258, 3-ethyl-2-((R)-1-((R)-5-methyl-1,4-diazepan-1-yl)butyl)-6-(trifluoromethyl)quinazolin-4(3H)-one] | 0.5 to 5 | < 0.5 |
| CCCC(c1nc2nc(C(F)(F)F)ccc2c(=O)n1CC)N1CCCN(C)CC1 (centres unmarked) [Example 190, 3-ethyl-2-(1-(4-methyl-1,4-diazepan-1-yl)butyl)-7-(trifluoromethyl)pyrido[2,3-d]pyrimidin-4(3H)-one] | 0.5 to 5 | > 1 |
